“And” between values parts separate entries of the source, which are not always exact repeats. Equal values may be shown once. Numbers after ± are expanded uncertainties.
Experiments:
[1] = 101.3 kPa, Liquid
[2] = xn = mol fraction of the nth substance listed; conditions: 101.3 kPa, Liquid

SMILES | mass density ([1]; 293.15 K) [kg/m3] | viscosity ([1]; 293.15 K) | mass density ([1]; 298.15 K) [kg/m3] | viscosity ([1]; 298.15 K) | mass density ([1]; 303.15 K) [kg/m3] | viscosity ([1]; 303.15 K) | mass density ([1]; 313.15 K) [kg/m3] | viscosity ([1]; 313.15 K) | mass density ([1]; 323.15 K) [kg/m3] | viscosity ([1]; 323.15 K) | mass density ([1]; 333.15 K) [kg/m3] | viscosity ([1]; 333.15 K) [mPa·s] | mass density ([1]; 343.15 K) [kg/m3] | viscosity ([1]; 343.15 K) [mPa·s] | also measured
Clc1ccccc1 [chlorobenzene] | 1106.74 ± 0.4 | 0.8084 ± 0.021 mPa·s | 1101.33 ± 0.4 | 0.7422 ± 0.019 mPa·s | 1095.96 ± 0.39 | 0.7053 ± 0.018 mPa·s | 1085.06 ± 0.38 | 0.631 ± 0.017 mPa·s | 1074.26 ± 0.36 | 0.5677 ± 0.015 mPa·s | 1063.32 ± 0.35 | 0.5069 ± 0.014 | 1052.44 ± 0.34 | 0.4658 ± 0.013 | 
CCCCCC [hexane] | 662 ± 0.67 | 0.302 ± 0.0075 mPa·s | 657.44 ± 0.68 | 0.2886 ± 0.0074 mPa·s | 652.87 ± 0.69 | 0.2774 ± 0.0073 mPa·s | 643.55 ± 0.7 | 0.2504 ± 0.0072 mPa·s | 634.07 ± 0.71 | 0.2339 ± 0.0071 mPa·s | 624.39 ± 0.73 | 0.2114 ± 0.007 |  |  | 
CCCCCCC [heptane] + COC(=O)OC |  |  |  |  |  |  |  |  |  |  |  |  |  |  | mass density ([2]; 293.15 K, x2 = 0): 687.14 ± 0.71 kg/m3; viscosity ([2]; 293.15 K, x2 = 0): 0.4038 ± 0.0083 mPa·s; mass density ([2]; 298.15 K, x2 = 0): 682.91 ± 0.71 kg/m3; viscosity ([2]; 298.15 K, x2 = 0): 0.3831 ± 0.0082 mPa·s; mass density ([2]; 303.15 K, x2 = 0): 678.61 ± 0.71 kg/m3; viscosity ([2]; 303.15 K, x2 = 0): 0.3629 ± 0.008 mPa·s; mass density ([2]; 313.15 K, x2 = 0): 669.91 ± 0.72 kg/m3; viscosity ([2]; 313.15 K, x2 = 0): 0.3274 ± 0.0078 mPa·s; mass density ([2]; 323.15 K, x2 = 0): 661.16 ± 0.73 kg/m3; viscosity ([2]; 323.15 K, x2 = 0): 0.298 ± 0.0076 mPa·s; mass density ([2]; 333.15 K, x2 = 0): 652.26 ± 0.75 kg/m3; viscosity ([2]; 333.15 K, x2 = 0): 0.2704 ± 0.0074 mPa·s; mass density ([2]; 343.15 K, x2 = 0): 643.31 ± 0.76 kg/m3; viscosity ([2]; 343.15 K, x2 = 0): 0.2487 ± 0.0072 mPa·s
COC(=O)OC [dimethyl carbonate] + Clc1ccccc1 |  |  |  |  |  |  |  |  |  |  |  |  |  |  | mass density ([2]; 293.15 K, x1 = 1): 1069.54 ± 0.24 kg/m3; viscosity ([2]; 293.15 K, x1 = 1): 0.6163 ± 0.016 mPa·s; mass density ([2]; 298.15 K, x1 = 1): 1062.95 ± 0.23 kg/m3; viscosity ([2]; 298.15 K, x1 = 1): 0.5771 ± 0.016 mPa·s; mass density ([2]; 303.15 K, x1 = 1): 1056.35 ± 0.23 kg/m3; viscosity ([2]; 303.15 K, x1 = 1): 0.5433 ± 0.015 mPa·s; mass density ([2]; 313.15 K, x1 = 1): 1043.01 ± 0.21 kg/m3; viscosity ([2]; 313.15 K, x1 = 1): 0.482 ± 0.014 mPa·s; mass density ([2]; 323.15 K, x1 = 1): 1029.59 ± 0.19 kg/m3; viscosity ([2]; 323.15 K, x1 = 1): 0.4319 ± 0.013 mPa·s; mass density ([2]; 333.15 K, x1 = 1): 1016 ± 0.18 kg/m3; viscosity ([2]; 333.15 K, x1 = 1): 0.3893 ± 0.012 mPa·s; mass density ([2]; 343.15 K, x1 = 1): 1002.32 ± 0.16 kg/m3; viscosity ([2]; 343.15 K, x1 = 1): 0.3527 ± 0.011 mPa·s
CCCCCCC [heptane] | 687.14 ± 0.71 | 0.4038 ± 0.0083 mPa·s | 682.91 ± 0.71 | 0.3831 ± 0.0082 mPa·s | 678.61 ± 0.71 | 0.3629 ± 0.008 mPa·s | 669.91 ± 0.72 | 0.3274 ± 0.0078 mPa·s | 661.16 ± 0.73 | 0.298 ± 0.0076 mPa·s | 652.26 ± 0.75 | 0.2704 ± 0.0074 | 643.31 ± 0.76 | 0.2487 ± 0.0072 | 
COC(=O)OC [dimethyl carbonate] | 1069.54 ± 0.24 | 0.6163 ± 0.016 mPa·s and 0.6173 ± 0.0096 mPa·s | 1062.95 ± 0.23 | 0.5771 ± 0.016 mPa·s and 0.5734 ± 0.0093 mPa·s | 1056.35 ± 0.23 | 0.5433 ± 0.015 mPa·s and 0.5403 ± 0.009 mPa·s | 1043.01 ± 0.21 | 0.482 ± 0.014 mPa·s and 0.4807 ± 0.0086 mPa·s | 1029.59 ± 0.19 | 0.4319 ± 0.013 mPa·s and 0.427 ± 0.0082 mPa·s | 1016 ± 0.18 | 0.3893 ± 0.012 | 1002.32 ± 0.16 | 0.3527 ± 0.011 | 
CCCCCC [hexane] + COC(=O)OC |  |  |  |  |  |  |  |  |  |  |  |  |  |  | mass density ([2]; 293.15 K, x2 = 0): 662 ± 0.67 kg/m3; viscosity ([2]; 293.15 K, x2 = 0): 0.302 ± 0.0075 mPa·s; mass density ([2]; 298.15 K, x2 = 0): 657.44 ± 0.68 kg/m3; viscosity ([2]; 298.15 K, x2 = 0): 0.2886 ± 0.0074 mPa·s; mass density ([2]; 303.15 K, x2 = 0): 652.87 ± 0.69 kg/m3; viscosity ([2]; 303.15 K, x2 = 0): 0.2774 ± 0.0073 mPa·s; mass density ([2]; 313.15 K, x2 = 0): 643.55 ± 0.7 kg/m3; viscosity ([2]; 313.15 K, x2 = 0): 0.2504 ± 0.0072 mPa·s; mass density ([2]; 323.15 K, x2 = 0): 634.07 ± 0.71 kg/m3; viscosity ([2]; 323.15 K, x2 = 0): 0.2339 ± 0.0071 mPa·s; mass density ([2]; 333.15 K, x2 = 0): 624.39 ± 0.73 kg/m3; viscosity ([2]; 333.15 K, x2 = 0): 0.2114 ± 0.007 mPa·s

— the NIST ThermoML archive (doi:10.1021/je049777o)
